Results reported in article PMC11079024, “Identification of a family of species-selective complex I inhibitors as potential anthelmintics” (Nature Communications, 2024).
Values joined by “and” are separate entries in the source; they are usually repeats but may differ in a detail not shown here. Equal entries are not always repeated. Where two headings read alike, the source gives them in different places.

Molecular target: C. elegans (N2) complex I (NADH:ubiquinone oxidoreductase) (Caenorhabditis elegans, UniProt P24887+Q93873+Q94360)
Sequence (Q94360 17-199): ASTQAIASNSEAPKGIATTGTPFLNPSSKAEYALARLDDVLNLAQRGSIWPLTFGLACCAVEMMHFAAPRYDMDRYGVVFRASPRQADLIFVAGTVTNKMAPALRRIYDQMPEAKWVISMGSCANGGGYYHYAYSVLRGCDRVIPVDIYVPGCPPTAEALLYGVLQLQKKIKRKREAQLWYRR
Sequence (P24887 whole entry): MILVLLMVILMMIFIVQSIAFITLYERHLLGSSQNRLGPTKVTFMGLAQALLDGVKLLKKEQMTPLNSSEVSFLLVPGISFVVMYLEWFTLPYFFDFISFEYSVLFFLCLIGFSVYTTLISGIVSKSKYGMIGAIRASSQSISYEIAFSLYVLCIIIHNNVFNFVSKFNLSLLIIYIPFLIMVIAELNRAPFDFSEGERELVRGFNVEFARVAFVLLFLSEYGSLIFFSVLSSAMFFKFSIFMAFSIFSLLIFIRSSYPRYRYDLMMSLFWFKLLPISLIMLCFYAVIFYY
Sequence (Q93873 31-482): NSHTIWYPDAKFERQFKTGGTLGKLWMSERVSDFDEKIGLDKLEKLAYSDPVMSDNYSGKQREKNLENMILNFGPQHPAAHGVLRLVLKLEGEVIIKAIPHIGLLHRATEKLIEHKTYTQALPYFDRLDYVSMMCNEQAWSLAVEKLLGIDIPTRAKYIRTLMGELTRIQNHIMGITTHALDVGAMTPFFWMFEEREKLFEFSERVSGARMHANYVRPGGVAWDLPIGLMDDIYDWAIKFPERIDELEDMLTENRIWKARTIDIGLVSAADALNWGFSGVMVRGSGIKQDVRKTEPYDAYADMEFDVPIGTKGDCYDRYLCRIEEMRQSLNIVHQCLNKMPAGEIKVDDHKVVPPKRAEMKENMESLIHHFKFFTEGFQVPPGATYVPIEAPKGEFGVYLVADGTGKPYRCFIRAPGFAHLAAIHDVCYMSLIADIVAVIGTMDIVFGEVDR
Assay: biochemical
Type: biochemical
In short: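 Complex I rate: initial linear slope of A600 over 15 min, expressed as percent of solvent control. Triple freeze-thawed mitochondria (0.2 mg/mL) in KPi pH 7.5, BSA 3 mg/mL, NADH 80 μM, decylubiquinone 60 μM, DCIP 160 μM, antimycin A, KCN.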

[1] = 0.125 µM, wild-type C. elegans mitochondria, mean of replicates, read-out: percent (%) in vitro complex I activity relative to solvent control
[2] = 0.125 µM, wild-type C. elegans mitochondria, single replicate
[3] = 0.313 µM, wild-type C. elegans mitochondria, mean of replicates, read-out: percent (%) in vitro complex I activity relative to solvent control
[4] = 0.313 µM, wild-type C. elegans mitochondria, single replicate
[5] = 0.313 µM, wild-type C. elegans mitochondria, single replicate, read-out: percent (%) in vitro complex I activity relative to solvent control
[6] = 0.625 µM, wild-type C. elegans mitochondria, mean of replicates, read-out: percent (%) in vitro complex I activity relative to solvent control
[7] = 0.625 µM, wild-type C. elegans mitochondria, single replicate
[8] = 1.5 µM, wild-type C. elegans mitochondria, mean of replicates, read-out: percent (%) in vitro complex I activity relative to solvent control
[9] = 1.5 µM, wild-type C. elegans mitochondria, single replicate
[10] = 3 µM, wild-type C. elegans mitochondria, mean of replicates, read-out: percent (%) in vitro complex I activity relative to solvent control
[11] = 3 µM, wild-type C. elegans mitochondria, single replicate
[12] = 3 µM, wild-type C. elegans mitochondria, single replicate, read-out: percent (%) in vitro complex I activity relative to solvent control
[13] = 15 µM, wild-type C. elegans mitochondria, mean of replicates, read-out: percent (%) in vitro complex I activity relative to solvent control
[14] = 15 µM, wild-type C. elegans mitochondria, single replicate
[15] = 15 µM, wild-type C. elegans mitochondria, single replicate, read-out: percent (%) in vitro complex I activity relative to solvent control
[16] = 37.5 µM, wild-type C. elegans mitochondria, mean of replicates, read-out: percent (%) in vitro complex I activity relative to solvent control
[17] = 37.5 µM, wild-type C. elegans mitochondria, single replicate
[18] = 37.5 µM, wild-type C. elegans mitochondria, single replicate, read-out: percent (%) in vitro complex I activity relative to solvent control
[19] = 75 µM, wild-type C. elegans mitochondria, mean of replicates, read-out: percent (%) in vitro complex I activity relative to solvent control
[20] = 75 µM, wild-type C. elegans mitochondria, single replicate
[21] = 75 µM, wild-type C. elegans mitochondria, single replicate, read-out: percent (%) in vitro complex I activity relative to solvent control

SMILES: COC(=O)Nc1nc2ccc(Sc3ccccc3)cc2[nH]1 [fenbendazole, reference compound]
- remaining activity at 0.125 µM [1]: 103%
- percent (%) in vitro complex I activity relative to solvent control [2]: 106.082% and 99.397%
- remaining activity at 0.125 µM (0.125 µM, wild-type C. elegans mitochondria, single replicate, read-out: percent (%) in vitro complex I activity relative to solvent control): 102%
- remaining activity at 0.313 µM [3]: 101%
- percent (%) in vitro complex I activity relative to solvent control [4]: 105.067% and 102.773%
- remaining activity at 0.313 µM [5]: 101%
- remaining activity at 0.625 µM [6]: 101%
- percent (%) in vitro complex I activity relative to solvent control [7]: 108.826% and 84.037% and 107.828% and 101.922%
- remaining activity at 1.5 µM [8]: 101%
- percent (%) in vitro complex I activity relative to solvent control [9]: 107.818% and 102.911% and 106.921% and 84.834%
- remaining activity at 3 µM [10]: 108%
- percent (%) in vitro complex I activity relative to solvent control [11]: 108.394% and 103.450%
- remaining activity at 3 µM [12]: 111%
- remaining activity at 15 µM [13]: 103%
- percent (%) in vitro complex I activity relative to solvent control [14]: 105.414% and 100.145%
- remaining activity at 15 µM [15]: 104%
- remaining activity at 37.5 µM [16]: 106%
- percent (%) in vitro complex I activity relative to solvent control [17]: 108.185% and 102.298%
- remaining activity at 37.5 µM [18]: 112%
- remaining activity at 75 µM [19]: 99.7%
- percent (%) in vitro complex I activity relative to solvent control [20]: 105.576% and 98.309%
- remaining activity at 75 µM [21]: 98.1%
- remaining activity at 0.0001 µM (dose 0.0001 µM, wild-type C. elegans, mean of replicates, read-out: in vitro complex I activity relative to solvent control, Mean): 92.7%
- in vitro complex I activity relative to solvent control, individual replicate (dose 0.0001 µM, wild-type C. elegans, single replicate): 89.632% and 90.262%
- remaining activity at 0.0001 µM (dose 0.0001 µM, wild-type C. elegans, single replicate, read-out: in vitro complex I activity relative to solvent control, individual replicate): 94.2%
- remaining activity at 0.0005 µM (dose 0.0005 µM, wild-type C. elegans, mean of replicates, read-out: in vitro complex I activity relative to solvent control, Mean): 102%
- in vitro complex I activity relative to solvent control, individual replicate (dose 0.0005 µM, wild-type C. elegans, single replicate): 109.063% and 93.803% and 100.567%
- remaining activity at 0.0005 µM (dose 0.0005 µM, wild-type C. elegans, single replicate, read-out: in vitro complex I activity relative to solvent control, individual replicate): 104%
- remaining activity at 0.001 µM (dose 0.001 µM, wild-type C. elegans, mean of replicates, read-out: in vitro complex I activity relative to solvent control, Mean): 107%
- in vitro complex I activity relative to solvent control, individual replicate (dose 0.001 µM, wild-type C. elegans, single replicate): 112.362% and 106.090% and 103.456%
- remaining activity at 0.001 µM (dose 0.001 µM, wild-type C. elegans, single replicate, read-out: in vitro complex I activity relative to solvent control, individual replicate): 107%
- remaining activity at 0.0025 µM (dose 0.0025 µM, wild-type C. elegans, mean of replicates, read-out: in vitro complex I activity relative to solvent control, Mean): 106%
- in vitro complex I activity relative to solvent control, individual replicate (dose 0.0025 µM, wild-type C. elegans, single replicate): 111.626% and 103.191% and 101.180%
- remaining activity at 0.0025 µM (dose 0.0025 µM, wild-type C. elegans, single replicate, read-out: in vitro complex I activity relative to solvent control, individual replicate): 107%
- remaining activity at 0.005 µM (dose 0.005 µM, wild-type C. elegans, mean of replicates, read-out: in vitro complex I activity relative to solvent control, Mean): 106%
- in vitro complex I activity relative to solvent control, individual replicate (dose 0.005 µM, wild-type C. elegans, single replicate): 110.787% and 104.169% and 105.146%
- remaining activity at 0.005 µM (dose 0.005 µM, wild-type C. elegans, single replicate, read-out: in vitro complex I activity relative to solvent control, individual replicate): 104%
- remaining activity at 0.013 µM (dose 0.013 µM, wild-type C. elegans, mean of replicates, read-out: in vitro complex I activity relative to solvent control, Mean): 105%
- in vitro complex I activity relative to solvent control, individual replicate (dose 0.013 µM, wild-type C. elegans, single replicate): 109.484% and 102.444% and 103.368%
- remaining activity at 0.013 µM (dose 0.013 µM, wild-type C. elegans, single replicate, read-out: in vitro complex I activity relative to solvent control, individual replicate): 105%
- remaining activity at 0.025 µM (dose 0.025 µM, wild-type C. elegans, mean of replicates, read-out: in vitro complex I activity relative to solvent control, Mean): 108%
- in vitro complex I activity relative to solvent control, individual replicate (dose 0.025 µM, wild-type C. elegans, single replicate): 112.068% and 112.677% and 102.223%
- remaining activity at 0.025 µM (dose 0.025 µM, wild-type C. elegans, single replicate, read-out: in vitro complex I activity relative to solvent control, individual replicate): 106%
- remaining activity at 0.063 µM (dose 0.063 µM, wild-type C. elegans, mean of replicates, read-out: in vitro complex I activity relative to solvent control, Mean): 102%
- in vitro complex I activity relative to solvent control, individual replicate (dose 0.063 µM, wild-type C. elegans, single replicate): 106.376% and 104.996% and 99.618%
- remaining activity at 0.063 µM (dose 0.063 µM, wild-type C. elegans, single replicate, read-out: in vitro complex I activity relative to solvent control, individual replicate): 98%
- remaining activity at 0.125 µM (dose 0.125 µM, wild-type C. elegans, mean of replicates, read-out: in vitro complex I activity relative to solvent control, Mean): 103%
- in vitro complex I activity relative to solvent control, individual replicate (dose 0.125 µM, wild-type C. elegans, single replicate): 106.082% and 99.397%
- remaining activity at 0.125 µM (dose 0.125 µM, wild-type C. elegans, single replicate, read-out: in vitro complex I activity relative to solvent control, individual replicate): 104%
- remaining activity at 0.313 µM (dose 0.313 µM, wild-type C. elegans, mean of replicates, read-out: in vitro complex I activity relative to solvent control, Mean): 101%
- in vitro complex I activity relative to solvent control, individual replicate (dose 0.313 µM, wild-type C. elegans, single replicate): 105.067% and 102.773%
- remaining activity at 0.313 µM (dose 0.313 µM, wild-type C. elegans, single replicate, read-out: in vitro complex I activity relative to solvent control, individual replicate): 96.6%
- remaining activity at 0.625 µM (dose 0.625 µM, wild-type C. elegans, mean of replicates, read-out: in vitro complex I activity relative to solvent control, Mean): 101%
- in vitro complex I activity relative to solvent control, individual replicate (dose 0.625 µM, wild-type C. elegans, single replicate): 84.037% and 107.828% and 101.922% and 108.826%
- remaining activity at 1.5 µM (dose 1.5 µM, wild-type C. elegans, mean of replicates, read-out: in vitro complex I activity relative to solvent control, Mean): 101%
- in vitro complex I activity relative to solvent control, individual replicate (dose 1.5 µM, wild-type C. elegans, single replicate): 102.911% and 106.921% and 84.834% and 107.818%
- remaining activity at 3 µM (dose 3 µM, wild-type C. elegans, mean of replicates, read-out: in vitro complex I activity relative to solvent control, Mean): 108%
- in vitro complex I activity relative to solvent control, individual replicate (dose 3 µM, wild-type C. elegans, single replicate): 108.394% and 103.450%
- remaining activity at 3 µM (dose 3 µM, wild-type C. elegans, single replicate, read-out: in vitro complex I activity relative to solvent control, individual replicate): 107%
- remaining activity at 15 µM (dose 15 µM, wild-type C. elegans, mean of replicates, read-out: in vitro complex I activity relative to solvent control, Mean): 103%
- in vitro complex I activity relative to solvent control, individual replicate (dose 15 µM, wild-type C. elegans, single replicate): 105.414% and 100.145%
- remaining activity at 15 µM (dose 15 µM, wild-type C. elegans, single replicate, read-out: in vitro complex I activity relative to solvent control, individual replicate): 101%
- remaining activity at 37.5 µM (dose 37.5 µM, wild-type C. elegans, mean of replicates, read-out: in vitro complex I activity relative to solvent control, Mean): 106%
- in vitro complex I activity relative to solvent control, individual replicate (dose 37.5 µM, wild-type C. elegans, single replicate): 108.185% and 102.298%
- remaining activity at 37.5 µM (dose 37.5 µM, wild-type C. elegans, single replicate, read-out: in vitro complex I activity relative to solvent control, individual replicate): 103%
- remaining activity at 75 µM (dose 75 µM, wild-type C. elegans, mean of replicates, read-out: in vitro complex I activity relative to solvent control, Mean): 99.7%
- in vitro complex I activity relative to solvent control, individual replicate (dose 75 µM, wild-type C. elegans, single replicate): 105.576% and 98.309%
- remaining activity at 75 µM (dose 75 µM, wild-type C. elegans, single replicate, read-out: in vitro complex I activity relative to solvent control, individual replicate): 96.8%

SMILES: COC(=O)Nc1nc2ccc(C(=O)c3ccccc3)cc2[nH]1 [mebendazole, reference compound]
- remaining activity at 0.125 µM [1]: 104%
- percent (%) in vitro complex I activity relative to solvent control [2]: 95.514% and 94.187% and 106.525% and 121.019%
- remaining activity at 0.313 µM [3]: 102%
- percent (%) in vitro complex I activity relative to solvent control [4]: 96.314% and 108.975% and 110.715%
- remaining activity at 0.313 µM [5]: 92.7%
- remaining activity at 0.625 µM [6]: 105%
- percent (%) in vitro complex I activity relative to solvent control [7]: 110.023% and 108.944%
- remaining activity at 0.625 µM (0.625 µM, wild-type C. elegans mitochondria, single replicate, read-out: percent (%) in vitro complex I activity relative to solvent control): 100%
- remaining activity at 1.5 µM [8]: 101%
- percent (%) in vitro complex I activity relative to solvent control [9]: 91.749% and 101.813% and 107.753%
- remaining activity at 1.5 µM (1.5 µM, wild-type C. elegans mitochondria, single replicate, read-out: percent (%) in vitro complex I activity relative to solvent control): 101%
- remaining activity at 3 µM [10]: 104%
- percent (%) in vitro complex I activity relative to solvent control [11]: 97.513% and 112.361% and 102.837%
- remaining activity at 3 µM [12]: 104%
- remaining activity at 15 µM [13]: 102%
- percent (%) in vitro complex I activity relative to solvent control [14]: 94.944% and 106.604% and 105.394%
- remaining activity at 15 µM [15]: 102%
- remaining activity at 37.5 µM [16]: 97.7%
- percent (%) in vitro complex I activity relative to solvent control [17]: 90.732% and 104.066% and 100.084%
- remaining activity at 37.5 µM [18]: 95.9%
- remaining activity at 75 µM [19]: 91.3%
- percent (%) in vitro complex I activity relative to solvent control [20]: 90.802% and 93.867% and 91.631%
- remaining activity at 75 µM [21]: 88.8%
